This is an account of results in US9463242B2, “Methods for treating prostate cancer” (UNIVERSITY OF ROCHESTER, priority 2011, dated 2016).

“Also recorded” adds a separate entry of the source. Like-named read-outs stand apart in the source and are kept apart here.

Data set [1] concerns AR expression in LNCaP CD133+ cells. The data set can be described thus: Induction of AR expression in LNCaP CD133+ cells. It counts as cell-based, human.
Data set [2] deals with PCa S/P cells (LNCaP CD133+). The data set can be described thus: MTT growth assay of prostate cancer S/P cells treated with inhibitors. It counts as cell-based, human. The conditions noted are these: for IC50: Homo sapiens, LNCaP; for inhibitory effect on proliferation of the S/P cells: used individually. How it is done: For an MTT assay, cells were incubated in 12- or 24-well culture plates (10^5-10^3 cells/well) and cultured. At 2, 4, and 6 days, 3-(4,5-dimethylthiazol-2-yl)-2,5-diphenyltetrazolium bromide (MTT; 0.5 mg/mL; Sigma) was added. After 2 hours of reaction, absorbances at 570 nm were measured. For soft agar colony formation assay, cell suspension (1×10^4 cells/well in 6 well culture plates) of mixture of 1.5% agarose (Cambrex Bio Science Rockland, Ill.) and 2× medium (2 ml) was overlaid onto the solidified mixture of agarose base (final agarose concentration will be 0.75%). Two mL of normal medium containing various concentrations of DHT was added on top of the solidified agarose cell layer. All conditions were performed in triplicate. The plates were incubated at 37° C. in a humidified incubator for 21 days. The colonies developed were visualized by staining with 1% crystal violet. The colonies larger than 1 mm in diameter were counted. For sphere formation assay, a single cell suspension (1×10^3, in 50 μl medium) was mixed with cold Matrigel 50 μl (kept on ice) and the mixture was placed along the rim of the 24 well with minimum triplicate experiments. The culture plates were placed in a 37° C. incubator for 10 min to let the mixture solidify and 500 μl medium was then added into the well. Cells were grown in 5% RPMI (for human PCa S/P cells) and epithelial basal medium (PrEBM) (Lonza) supplemented with growth supplement (Lonza) (for mouse cells) with addition of various concentrations of DHT (1 or 10 nM). Spheres numbers were counted after 7 to 14 days under Olympus light microscope and size differences were also examined.
The effect of combined use of these molecules to block self-renewal/proliferation of the S/P cells was tested. […] The effect of a combinations of two drugs selected among three drugs, LY294002 (inhibitor of Akt pathway), γ-TT, and 5-AZA was tested. […] The test results of the combination therapies using soft agar (FIG. 19C) and sphere formation assays (FIG. 19D) confirmed the MTT results. One method of two drug combination therapy was selected based on these three growth assays. This combination is the use of γ-TT and 5-AZA. From all the in vitro tests including an LD test, a minimum dose of these drugs that kills S/P cells was determined. This strategy was used for an in vivo study. When tumors developed the mice were castrated and ASC-J9 was injected, Two or three combinations of the drugs that target S/P population cells were administered. A tumor development curve indicated the recurrence of castration resistant tumors.
(Tetrazolium assays rely on reduction of a dye to a coloured formazan, in cell work by metabolically active cells.)

The next data set concerns the target T1, AR (Homo sapiens, UniProt P10275).
T1 sequence (P10275 1-920): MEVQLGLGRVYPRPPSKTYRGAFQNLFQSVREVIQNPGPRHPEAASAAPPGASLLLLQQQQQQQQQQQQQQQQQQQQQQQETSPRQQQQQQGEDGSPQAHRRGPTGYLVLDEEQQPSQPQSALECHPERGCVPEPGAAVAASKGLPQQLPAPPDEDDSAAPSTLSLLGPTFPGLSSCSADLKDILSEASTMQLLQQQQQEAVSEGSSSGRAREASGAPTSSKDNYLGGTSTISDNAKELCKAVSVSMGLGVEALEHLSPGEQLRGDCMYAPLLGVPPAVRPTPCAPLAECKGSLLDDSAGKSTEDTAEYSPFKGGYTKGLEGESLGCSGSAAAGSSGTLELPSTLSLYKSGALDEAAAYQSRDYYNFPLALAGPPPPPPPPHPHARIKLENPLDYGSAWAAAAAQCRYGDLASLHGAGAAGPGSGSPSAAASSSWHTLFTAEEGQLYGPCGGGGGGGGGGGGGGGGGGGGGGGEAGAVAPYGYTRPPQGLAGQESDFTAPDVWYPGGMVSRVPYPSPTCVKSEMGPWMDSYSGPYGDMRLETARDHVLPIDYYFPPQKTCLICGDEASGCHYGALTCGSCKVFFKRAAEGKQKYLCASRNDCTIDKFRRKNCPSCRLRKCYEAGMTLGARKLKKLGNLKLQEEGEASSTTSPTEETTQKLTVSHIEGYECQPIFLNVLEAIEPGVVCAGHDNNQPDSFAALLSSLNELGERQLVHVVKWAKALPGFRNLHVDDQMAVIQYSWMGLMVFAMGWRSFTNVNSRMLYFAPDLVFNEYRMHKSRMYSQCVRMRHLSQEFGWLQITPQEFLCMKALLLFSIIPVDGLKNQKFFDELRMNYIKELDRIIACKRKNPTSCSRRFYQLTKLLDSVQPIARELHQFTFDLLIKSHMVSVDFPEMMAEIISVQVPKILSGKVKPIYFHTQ
The conditions noted are these: stated as known; cited from earlier work.

The conditions of data set [3]: stated as known; cited from earlier work.
The test system of a further data set is C4-2 cells. The data set can be described thus: CD133+ population after Casodex treatment, C4-2. It counts as cell-based, human. To be noted: C4-2, Casodex treatment. On the procedure: (§1) In order to investigate whether S/P cell numbers increase after ADT/castration, LNCaP cells were treated with anti-androgen, Casodex, to mimic castration conditions in vitro. […] Similar experiments were performed with C4-2 and LAPC-4 cell lines.

Another data set concerns LNCaP cells. The data set can be described thus: CD133+ population after continuous Casodex treatment, LNCaP. It counts as cell-based, human. The conditions noted are these: Casodex for 5 wks continuously. How it is done:
as §1

Data set [4] deals with MyoD and Myogenin expression in primary cultured human prostate stromal cells. The data set can be described thus: Expression of smooth muscle maturation genes after TGF-β1 treatment. The class given is cell-based. To be noted: 10 ng/ml TGF-β1 treatment. How it is done:
(§2) In FIG. 5a, the expression of TGF-β1 was investigated by IHC staining. The decreased expression of TGF-β1 was found in pes-ARKO epithelium. […] In FIG. 5c, to evaluate the TGF-β1 effect on the differentiation of smooth muscle cells, the primary cultured human prostate stromal cells were treated with different doses of TGF-β1. The expression of smooth muscle α-actin, as shown in FIG. 5c and FIG. 5d, and calponin, as shown in FIG. 5e and FIG. 5f, were detected following treatment for 1 to 5 days.
(§3) The expression of TGF-β1 (FIG. 5a) and TGF-β1 downstream signals was detected by immunohistochemistry (IHC) staining in 24 week old wild type and pes-ARKO prostate epithelium. The TGF-β1 expression and its downstream signals were lower in the epithelium of pes-ARKO mice than those from wild type mice. […] MyoD and Myogenin expression, which are deeply involved in the stromal smooth muscle maturation and differentiation, was also modulated by TGF-β1 stimulation (FIG. 5g).

In data set [5] the test system is primary cultured human stromal cells (ps-1). Kind of data set: TGF-β1 treatment of primary cultured human prostate stromal cells, α-SMA and calponin staining. The conditions noted are these: different concentrations of TGF-β1 for 1 to 5 days. The class given is cell-based. How it is done:
as §2, §3

`Nc1ncn([C@H]2C[C@H](O)[C@@H](CO)O2)c(=O)n1` [5-AZA, 5-aza-2′-deoxycytidine]: the AR expression result in data set [1] is on record as “Induction of AR expression”. For the same compound, the IC50 (in general, the point on the concentration scale where inhibition reaches its midpoint) in data set [2] (read-out: IC50 of the individual compound) lay in the range of 2500 to 5000 nM. Further, the “inhibitory effect on proliferation of the S/P cells” value in data set [2] was “inhibits proliferation”.

Take `COc1ccc(/C=C/C(=O)/C=C(O)/C=C/c2ccc(OC)c(OC)c2)cc1OC` [ASC-J9]: the AR degrading activity result at AR is reported as “AR degrading activity”. In data set [3], the toxicity entry is given as “without toxicity”.

Turning to `CC(O)(CS(=O)(=O)c1ccc(F)cc1)C(=O)Nc1ccc(C#N)c(C(F)(F)F)c1` (stereo not drawn) [Casodex], the figures for the “CD133+ population cells” value in the data set with C4-2 cells and with LNCaP cells were “not as significant as in LNCaP cells” and “significantly increased; also recorded: increase”, respectively.

Take `O=c1cc(N2CCOCC2)oc2c(-c3ccccc3)cccc12` [LY294002]: the IC50 in data set [2] (LY294002 + γ-TT + 5-AZA together, S/P cells, MTT, read-out: IC50 of the individual compound when three compounds were used together) is < 1000 nM; in data set [2] (compound used alone, S/P cells, MTT, read-out: IC50 of the individual compound), 2500 to 5000 nM.

On to `CC(C)=CCC/C(C)=C/CC/C(C)=C/CC[C@]1(C)CCc2cc(O)c(C)c(C)c2O1` [γ-TT, γ-tocotrienol], for which, in data set [2], the “inhibitory effect on proliferation of the S/P cells” value was “inhibitory effect”.

With “TGF-β1: TGF-β1 protein used to treat primary cultured human prostate stromal cells”, the “MyoD and Myogenin expression” value in data set [4] is reported as “modulated”. The “number of mature stromal smooth muscle cells (α-SMA and calponin staining)” value in data set [5] is “significantly dependent on the higher concentration and longer duration”.
